The source of these data is patent publication US6486097B2, “Herbicidal fatty acid and maleic hydrazide salt compositions” (W. Neudorff GmbH KG, priority 2000, dated 2002).

Molecules are shown by their SMILES.

Data set [1] concerns dandelions. As to the kind of experiment: Potted dandelion test of NH4C9 and NH4C11:1 with and without MH (Example 7). As to conditions: for Number of Dead Plants of 15 Total: 0.5 L/m^2, sprayed twice 8 days apart, 8 days after second spray; for Contact herbicidal activity (in words): without NH4MH, treated plants were able to re-grow. The class given is in vivo. From the text: Five-month-old potted dandelions were sprayed with solutions of ammonium fatty acid soaps in combination with NH4MH. The solutions contained 3.9% ammonium fatty acid soaps and 1.15% NH4MH. The plants were sprayed at a rate of 0.5 L/m^2. The plants were sprayed twice, with 8 days between sprays. Final observations were taken 8 days after the second spray. Fifteen plants were used per treatment.

Data set [2] concerns dandelions. As to the kind of experiment: Field dandelion test (Example 2). In kind it is in vivo. As to conditions: 0.2 L/m^2, re-sprayed after 7 days, 38 days after first spray. Here is the method:
This test compared the herbicidal activity of NH4C9, NH4MH, and NH4C9+NH4MH on dandelion mortality. This test also investigated the effect of adding isopropyl alcohol (IPA) to NH4C9+NH4MH. Nine dandelions were grown in 0.5 m^2 areas of soil in the field. At the time of spraying the dandelions were very large, with leaves longer than 25 cm. Every treatment was sprayed onto 4 areas of soil. Every 0.5 m^2 plot received 100 ml of solution (0.2 L/m^2). All of the areas were re-sprayed 7 days after the first spray. The number of dead plants was assessed 38 days after the first spray.
Round Up (35.6% glyphosate N-(phosphonomethyl) glycine) produced by Monsanto, Killex (9.5% 2,4-D (2,4-dichlorophenoxy) acetic acid, Mecoprop (5% 2-(4-chloro-2-methylphenoxy)) propanoic acid and 0.9% Dicamba (3,6-dichloro-o-anisic acid) by Green Cross were diluted as per label instructions and included as standards.

The nature of data set [3]: Viscosity of test solutions (Example 4). In kind it is physicochemical. The note with it: pH 7.38. From the text: (§1) This test studied the effect of thickening NH4C9+NH4MH solutions on plant mortality. The solutions were thickened by adding 0.5 g of the xanthan gum Rhodopol 23 suspended in 3.0 g propylene glycol to 96.5 g solution. The pH values of the test solutions were adjusted to 7.38.

In data set [4] the test system is dandelions. As to the kind of experiment: Dandelion test of NH4C9 with a range of NH4MH concentrations (Example 3). The class given is in vivo. As to conditions: sprayed to wetness, 36 days after spraying. Here is the method: This test examined NH4C9 combined with a range of NH4MH concentrations. All of the NH4C9 treatments contained 3.9% NH4C9. All of the solutions were sprayed to wetness onto 10 dandelions. The number of dead plants was assessed 36 days after spraying.

The test system of data set [5] is dandelions. Kind of data set: Greenhouse dandelion test with a gum (Example 4), mortality. As to conditions: pH 7.38. The class given is in vivo.
Excerpt: as §1

Data set [6] has as its system dandelions. As to the kind of experiment: Field dandelion test with added alcohol and gum (Example 6). The note with it: 0.2 L/m^2, re-sprayed after 14 days, 10 days after second spray. The class given is in vivo. The protocol: This test compared the herbicidal activity of NH4C9, NH4MH and (NH4C9+NH4MH) with added alcohol and gums on dandelion mortality. The gum Kelzan S (Merck & Co., Inc.) at 0.08% was used as a thickener.
This test also investigated the effect of adding NH4MH to emulsified C9 acid. The emulsified C9 acid solution was made by adding 3.5 g of C9 acid with 1.0 g of Tween 80 and 95.5 g water (no ammonium hydroxide was added). For the C9 acid+NH4MH solution, 13 g of water was replaced by 13 g of the 6.9% NH4MH stock solution.
Every solution was sprayed onto 16 field-grown, medium-sized dandelions. All of the dandelions had leaves longer than 10 cm. The dandelions were sprayed at a rate of 0.2 L/m^2. All plants were re-sprayed 14 days after the first spray. The number of dead plants was assessed 10 days after the second spray.

For data set [7] the following is noted: same number of moles of NH4MH and MH. Here is the method:
The compositions of the solutions are listed below. Note that slightly more NH4MH was added than MH acid, as NH4MH has a higher molecular weight. The same number of moles of NH4MH and MH were used.
Viscosity is measured in centipoise (milli pascal seconds). Water has a viscosity of 1.0.

In data set [8] the test system is dandelions. As to the kind of experiment: Greenhouse dandelion test of TopGun with and without MH (Example 5). In kind it is in vivo. The note with it: NH4MH 1.15%; sprayed to run-off; 15 days after spraying. The protocol:
TopGun is a proprietary emulsified formulation containing 18% C9 (nonanoic) acid present as free acid. TopGun was diluted to 1.8% C9 acid. Each solution was sprayed to run-off onto ten 20 cm diameter dandelions grown in the greenhouse. The number of dead plants was assessed 15 days after spraying.

The mark [9] stands for this setting: C9 acid 3.5% emulsified with Tween 80.

With `C=CCCCCCCCCC(=O)O.N` [NH4C11:1], the “Number of Dead Plants of 15 Total” value in the data set with dandelions [1] (NH4C11:1 3.9%) stood at 2. Further, the “Contact herbicidal activity (in words)” value in the data set with dandelions [1] is listed as “good contact herbicides”.
Regarding `N.O=c1ccc(O)n[nH]1` [NH4MH, ammonium salt of maleic hydrazide], in the data set with dandelions [2] (NH4MH 1.15%), the “Dead Plants (#/36)” value is on record as 1 #/36 and the “Dead Plants (%)” value stood at 3%. Also, the “Viscosity (Cps)” value in data set [3] (NH4MH 1.15%) is reported as 1 Cps. Moreover, the “Mortality (#/10 plants)” value in the data set with dandelions [4] (NH4MH 1.15%) is 0 #/10 plants. Besides, the “Mortality (#/10)” value in the data set on dandelions [5] (NH4MH 1.15%) is listed as 0 #/10. In the data set with dandelions [6] (NH4MH 0.9% only), the “Dead Plants (#/16)” value is 0 #/16 and the “Dead Plants (%)” value is on record as 0%. Further, the “Solubility in NH4C9 concentrate compared with MH” value in data set [7] was “superior solubility”. In addition, the “Number of Dead Plants (#/10 Plants)” value with dandelions [8] is recorded as 0 #/10 Plants.
For `CCCCCCCCC(=O)O.N` [NH4C9, ammonium salt of nonanoic acid], in the data set on dandelions [1] (NH4C9 3.9%), the “Number of Dead Plants of 15 Total” value stood at 1. For the same molecule, the “Contact herbicidal activity (in words)” value in the data set on dandelions [1] is reported as “good contact herbicides”. Moreover, in the data set with dandelions [2] (NH4C9 3.9%), the “Dead Plants (#/36)” value is reported as 0 #/36 and the “Dead Plants (%)” value is 0%. Moreover, in data set [3] (NH4C9 2.2%), the “Viscosity (Cps)” value amounted to 1 Cps. Also, the “Mortality (#/10 plants)” value in the data set with dandelions [4] (NH4C9 3.9%) was 0 #/10 plants. Further, in the data set on dandelions [5] (NH4C9 2.2%), the “Mortality (#/10)” value is 1 #/10. In addition, in the data set with dandelions [6] (NH4C9 3.9%), the “Dead Plants (#/16)” value is reported as 2 #/16 and the “Dead Plants (%)” value came out at 13%.
On to `CCCCCCCCC(=O)O` [C9 acid, Nonanoic acid], for which, in the data set on dandelions [6] (setting [9]), the “Dead Plants (#/16)” value was 3 #/16 and the “Dead Plants (%)” value was 19%.
Consider `O=c1ccc(=O)[nH][nH]1` [MH, 1,2-dihydro-3,6-pyridazine-dione], for which the “Number of Dead Plants of 15 Total” value in the data set on dandelions [1] (MH only 1%) amounted to 0.
